This note sets out measurements from article PMC6385203, “Mutations in the palm domain disrupt modulation of acid-sensing ion channel 1a currents by neuropeptides” (Scientific Reports, 2019).

Peptide text beside a SMILES is read from it.

The assay addresses T1, ASIC1a N416C (Homo sapiens, UniProt P78348, N416C).
T1 construct: expressed in transfected cells; host or cells: Xenopus laevis oocytes injected with cRNA
T1 sequence (P78348 1-528 N416C): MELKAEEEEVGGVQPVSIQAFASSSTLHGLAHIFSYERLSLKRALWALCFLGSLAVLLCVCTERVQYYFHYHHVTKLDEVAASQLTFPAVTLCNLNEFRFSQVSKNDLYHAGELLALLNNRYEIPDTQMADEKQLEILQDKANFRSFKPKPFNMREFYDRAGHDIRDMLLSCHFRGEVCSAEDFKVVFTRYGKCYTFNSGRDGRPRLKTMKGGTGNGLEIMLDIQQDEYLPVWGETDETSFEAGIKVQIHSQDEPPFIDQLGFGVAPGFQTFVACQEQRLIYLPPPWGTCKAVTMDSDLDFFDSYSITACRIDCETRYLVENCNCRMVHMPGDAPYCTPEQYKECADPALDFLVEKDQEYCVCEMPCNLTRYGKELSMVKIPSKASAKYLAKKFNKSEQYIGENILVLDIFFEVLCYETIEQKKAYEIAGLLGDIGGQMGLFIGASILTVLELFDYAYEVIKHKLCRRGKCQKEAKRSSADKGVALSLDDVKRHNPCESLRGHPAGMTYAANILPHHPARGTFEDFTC
Kind of assay: Isust/Ipeak, TEVC in Xenopus oocytes. The following applies: pH5, n = 6–7, mean ± SEM, read-out: EC50 of FRRFa (Isust/Ipeak). In kind it is cell-based. An excerpt: To test the docking predictions, Cys mutants of palm and other proximal residues predicted to interact with the peptide were made. Since most of these residues are large and hydrophilic, the mutation to Cys changed the side chain properties substantially. Therefore, and because MTSET modification of many palm residues leads to currents with a large sustained component[22] that may render the measurement of FRRFa effects difficult, we exposed only the Cys mutants of hydrophobic residues (I307C and V414C) to 1 mM MTSET prior to the experiments with FRRFa. Asp212 was mutated to Gly (and not Cys), since we have previously observed that this residue is very sensitive to mutation, and that it is in most ASIC1a orthologs and even in several human ASIC1a clones a Gly. […] Due to the extremely small FRRFa-induced Isust/Ipeak ratio changes it was not possible to determine the EC50 of FRRFa on these mutants. To learn more about the nature of the Isust/Ipeak ratio increase by the N416C mutation, we measured the EC50 of FRRFa, which was 6 ± 2 μM (Fig. 6e, n = 6–7). […]
Electrophysiological measurements were performed 1–2 days after cRNA injection. Ion currents were recorded using two-electrode voltage-clamp at a holding potential of −60 mV with a Dagan TEV-200 amplifier (Minneapolis, MN). […] The amplitude of the sustained current was measured in the last two seconds of the pH5 perfusion. […]

Turning to `N=C(N)NCCC[C@H](NC(=O)[C@H](CCCNC(=N)N)NC(=O)[C@@H](N)Cc1ccccc1)C(=O)N[C@@H](Cc1ccccc1)C(N)=O` [FRRFa, Phe-Arg-Arg-Phe-amide] (H-FRRF-NH2), the EC50 stood at 6 ± 2 µM.
